Test results from patent publication US9328138B2 (priority 2011, dated 2016).
pKi: −log10 of the molar value. Where two headings read alike, the source gives them in different places.

What was measured:
[1] = target: HCV NS3 protease genotype 3a (3A-1) (Hepatitis C virus genotype 3a, UniProt Q81258); experiment: HCV NS3 protease time-resolved fluorescence (TRF) assay, genotype 3a; type: biochemical
Outline: (§1)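 IC50 values derive from 4-parameter fitting of TRF signal after a 6 h room-temperature cleavage of 25 nM peptide substrate by NS3/NS4A that had been pre-incubated 10 min with compound.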

[2] = target: T1, HCV genotype 1b (BK) NS3 modified enzyme with a R155K mutation (Hepatitis C virus genotype 1b, UniProt P26663, R1181K); experiment: HCV NS3 protease time-resolved fluorescence (TRF) assay, genotype 1b R155K; type: biochemical; conditions: Ki 1b R155K
T1 construct: HCV genotype 1b (BK) NS3 modified enzyme
Outline: as §1

[3] = genotype 1b (BK) NS3 R155K, single value
[4] = first of two values printed in the cell (not explained)
[5] = second of two values printed in the cell (not explained)

Row | SMILES | pKi ([1]; Ki 3a) | pKi [2, 3] | pKi ([1]; read-out: Ki 3a) | pKi [2, 4] | pKi [2, 5]
1 | C=C[C@@H]1C[C@]1(NC(=O)[C@@H]1C[C@@H]2CN1C(=O)[C@H](C1CCCC1)NC(=O)O[C@@H]1CCC[C@H]1CC/C=C\Cc1c(nc3ccccc3c1OCC)O2)C(=O)NS(=O)(=O)C1CC1 [Example 3, (3aR,7S,10S,12R,21Z,24aS)-7-cyclopentyl-N-{(1R,2S)-1-[(cyclopropylsulfonyl)carbamoyl]-2-ethenylcyclopropyl}-19-ethoxy-5,8-dioxo-1,2,3,3a, 5,6,7,8,11,12,20,23,24,24a-tetradecahydro-10H-9,12-methanocyclopenta[18,19][1,10,3,6] dioxadiazacyclononadecino[11,12-b] quinoline-10-carboxamide] | 7.46 | 8.85 | – | – | –
2 | C=C[C@@H]1C[C@]1(NC(=O)[C@@H]1C[C@@H]2CN1C(=O)[C@H](C(C)(C)C)NC(=O)O[C@@H]1C[C@H]1CCCCCc1c(nc3ccccc3c1OCCCN1CC(OC)C1)O2)C(=O)NS(=O)(=O)C1(C)CC1 [Example 157, (1aR,5S,8S,10R,22aR)-5-tert-butyl-N-[(1R,2S)-2-ethenyl-1-{[(1-methylcyclopropyl)sulfonyl]carbamoyl}cyclopropyl]-17-[3-(3-methoxyazetidin-1-yl)propoxy]-3,6-dioxo-1,1a,3,4,5,6,9,10, 18,19,20,21,22,22a-tetradecahydro-8H-7,10-methanocyclopropa[18,19] [1,10,3,6]dioxadiazacyclononadecino [11,12-b]quinoline-8-carboxamide] | 9.12 | 10.31 | – | – | –
3 | C=C[C@@H]1C[C@]1(NC(=O)[C@@H]1C[C@@H]2CN1C(=O)[C@H](C(C)(C)C)NC(=O)O[C@@H]1C[C@H]1CCCCCc1c(nc3cc(C(C)C)ccc3c1OCCCN1C[C@@H]3C[C@H]1CO3)O2)C(=O)NS(=O)(=O)C1(C)CC1 [Example 164, (1aR,5S,8S,10R,22aR)-5-tert-butyl-N-[(1R,2S)-2-ethenyl-1-{[(1-methylcyclopropyl)sulfonyl]carbamoyl}cyclopropyl]-17-{3-[(1S,4S)-2-oxa-5-azabicyclo[2.2.1]hept-5-yl]propoxy}-3,6-dioxo-14-(propan-2-yl)-1,1a,3,4,5,6,9,10,18,19,20, 21,22,22a-tetradecahydro-8H-7,10-methanocyclopropa[18,19][1,10,3,6] dioxadiazacyclononadecino [11,12-b]quinoline-8-carboxamide] | 8.92 | 10.02 | – | – | –
4 | C=C[C@@H]1C[C@]1(NC(=O)[C@@H]1C[C@@H]2CN1C(=O)[C@H](C1CCCC1)NC(=O)O[C@@H]1CCC[C@H]1CC/C=C/Cc1c(nc3ccccc3c1OCCCOCCOC)O2)C(=O)NS(=O)(=O)C1CC1 [Example 47, (3aR,7S,10S,12R,21E,24aS)-7-cyclopentyl-N-{(1R,2S)-1-[(cyclopropylsulfonyl)carbamoyl]-2-ethenylcyclopropyl}-19-[3-(2-methoxyethoxy)propoxy]-5,8-dioxo-1,2,3,3a,5,6,7,8,11,12,20,23,24,24a-tetradeca-hydro-10H-9,12-methanocyclopenta[18,19] [1,10,3,6]dioxadiazacyclononadecino[11, 12-b]quinoline-10-carboxamide] | 8.54 | 9.92 | – | – | –
5 | C=C[C@@H]1C[C@]1(NC(=O)[C@@H]1C[C@@H]2CN1C(=O)[C@H](C(C)(C)C)NC(=O)O[C@@H]1C[C@H]1CCCCCc1c(nc3ccccc3c1OCCN(C)c1ccccc1)O2)C(=O)NS(=O)(=O)C1(C)CC1 [Example 130, (1aR,5S,8S,10R,22aR)-5-tert-butyl-N-[(1R,2S)-2-ethenyl-1-{[(1-methylcyclopropyl)sulfonyl]carbamoyl}cyclopropyl]-17-{2-[methyl(phenyl)amino]ethoxy}-3,6-dioxo-1,1a,3,4,5,6,9,10,18,19, cyclopropa[18,19][1,10,3,6] dioxadiazacyclononadecino [11,12-b]quinoline-8-carboxamide] | 7.74 | 8.66 | – | – | –
6 | C=C[C@@H]1C[C@]1(NC(=O)[C@@H]1C[C@@H]2CN1C(=O)[C@H](C1CCCC1)NC(=O)O[C@]1(C)CCC[C@H]1CC/C=C/Cc1c(nc3ccccc3c1OCc1ccccc1)O2)C(=O)NS(=O)(=O)C1CC1 [Example 14, (3aR,7S,10S,12R,21E,24aS)-19-(benzyloxy)-7-cyclopentyl-N-{(1R,2S)-1-[(cyclopropylsulfonyl)carbamoyl]-2-ethenylcyclopropyl}-3a-methyl-5,8-dioxo-1,2,3,3a,5,6,7,8,11,12,20,23,24,24a-tetradecahydro-10H-9,12-methanocyclopenta[18,19] [1,10,3,6]dioxadiazacyclononadecino[11,12-b] quinoline-10-carboxamide] | – | 9.09 | 7.55 | – | –
7 | C=C[C@@H]1C[C@]1(NC(=O)[C@@H]1C[C@@H]2CN1C(=O)[C@H](C(C)(C)C)NC(=O)O[C@@H]1CCC[C@H]1CCCCCc1c(nc3ccccc3c1OCCN1CCOCC1)O2)C(=O)NS(=O)(=O)N(C)CCOC [Example 111, (3aR,7S,10S,12R,24aR)-7-tert-butyl-N-[(1R,2S)-2-ethenyl-1-{[(2-methoxyethyl)(methyl)sulfamoyl]carbamoyl}cyclopropyl]-19-[2-(morpholin-4-yl)ethoxy]-5,8-dioxo-1,2,3,3a,5,6,7,8,11,12,20,21,22,23,24,24a-hexadecahydro-10H-9,12-methano-cyclopenta[18,19][1,10,3,6] dioxadiazacyclononadecino [11,12-b] quinoline-10-carboxamide] | 6.57 | 7.96 | – | – | –
8 | C=C[C@@H]1C[C@]1(NC(=O)[C@@H]1C[C@@H]2CN1C(=O)[C@H](C1CCCCC1)NC(=O)O[C@@H]1C[C@H]1CCCCCc1c(nc3ccccc3c1OCCCNC1CC(F)(F)C1)O2)C(=O)NS(=O)(=O)C1(C)CC1 [Example 243, (1aR,5S,8S,10R,22aR)-5-cyclohexyl-17-{3-[(3,3-difluorocyclobutyl)amino]propoxy}-N-[(1R,2S)-2-ethenyl-1-{[(1-methylcyclopropyl)sulfonyl]carbamoyl}cyclopropyl]-3,6-dioxo-1,1a,3,4,5,6,9,10,18,19,20,21,22,22a-tetradecahydro-8H-7,10-methanocyclopropa[18,19][1,10,3,6]dioxadiazacyclononadecino[11,12-b]quinoline-8-carboxamide] | 8.48 | – | – | 10.48 | 9.56
9 | C=C[C@@H]1C[C@]1(NC(=O)[C@@H]1C[C@@H]2CN1C(=O)[C@H](C1CCCCC1)NC(=O)O[C@@H]1C[C@H]1CCCCCc1c(nc3ccccc3c1OC1CC3CCC(C1)N3CCOC)O2)C(=O)NS(=O)(=O)C1(C)CC1 (stereo partly drawn) [Example 284, (1aR,5S,8S,10R,22aR)-5-cyclohexyl-N-[(1R,2S)-2-ethenyl-1-{[(1-methylcyclopropyl)sulfonyl]carbamoyl}cyclopropyl]-17-{[8-(2-methoxyethyl)-8-azabicyclo[3.2.1]oct-3-yl]oxy}-3,6-dioxo-1,1a,3,4,5,6,9,10,18,19,20,21,22,22a-tetradecahydro-8H-7,10-methanocyclopropa[18,19][1,10,3,6]dioxadiazacyclononadecino[11,12-b]quinoline-8-carboxamide] | 9.55 | – | – | 10.64 | 10.28
10 | C=C[C@@H]1C[C@]1(NC(=O)[C@@H]1C[C@@H]2CN1C(=O)[C@H](C(C)(C)C)NC(=O)O[C@@H]1C[C@H]1CCCCCc1c(nc3ccccc3c1OCCCNC1CCCC1)O2)C(=O)NS(=O)(=O)C1(C)CC1 [Example 182, (1aR,5S,8S,10R,22aR)-5-tert-butyl-17-[3-(cyclopentylamino)propoxy]-N-[(1R,2S)-2-ethenyl-1-{[(1-methylcyclopropyl)sulfonyl]carbamoyl}cyclopropyl]-3,6-dioxo-1,1a,3,4,5,6,9,10, 18,19,20,21,22,22a-tetradecahydro-8H-7,10-methanocyclopropa[18,19][1,10,3,6] dioxadiazacyclononadecino[11,12-b] quinoline-8-carboxamide] | 9.21 | 10.19 | – | – | –
11 | C=C[C@@H]1C[C@]1(NC(=O)[C@@H]1C[C@@H]2CN1C(=O)[C@H](C(C)(C)C)NC(=O)O[C@@H]1C[C@H]1CCCCCc1c(nc3ccccc3c1OCC1CN(C)C1)O2)C(=O)NS(=O)(=O)C1(C)CC1 [Example 224, (1aR,5S,8S,10R,22aR)-5-tert-butyl-N-[(1R,2S)-2-ethenyl-1-{[(1-methylcyclopropyl)sulfonyl]carbamoyl}cyclopropyl]-17-[(1-methylazetidin-3-yl)methoxy]-3,6-dioxo-1,1a,3,4,5,6,9,10,18,19,20,21,22,22a-tetradecahydro-8H-7,10-methanocyclopropa[18,19][1,10,3,6]dioxadiazacyclononadecino[11,12-b]quinoline-8-carboxamide] | 9.17 | 10.21 | – | – | –
12 | C=C[C@@H]1C[C@]1(NC(=O)[C@@H]1C[C@@H]2CN1C(=O)[C@H](C1CCCCC1)NC(=O)O[C@@H]1C[C@H]1CCCCCc1c(nc3ccccc3c1OC1CCOCC1)O2)C(=O)NS(=O)(=O)C1(C)CC1 [Example 253, (1aR,5S,8S,10R,22aR)-5-cyclohexyl-N-[(1R,2S)-2-ethenyl-1-{[(1-methylcyclopropyl)sulfonyl]carbamoyl}cyclopropyl]-3,6-dioxo-17-(tetrahydro-2H-pyran-4-yloxy)-1,1a,3,4,5,6,9,10,18,19,20,21,22,22a-tetradecahydro-8H-7,10-methanocyclopropa[18,19][1,10,3,6]dioxadiazacyclononadecino[11,12-b]quinoline-8-carboxamide] | 7.96 | – | – | 10.59 | 9.58
